In ChEMBL document CHEMBL3132769, “Fragment growing to retain or alter the selectivity of anchored kinase hinge-binding fragments” (Medchemcomm, 2014):

What was measured:
[1] = biological target: T1, Serine/threonine-protein kinase Sgk1 (Homo sapiens) (UniProt O00141); assay: Inhibition of human truncated SGK1 expressed in baculovirus assessed as substrate phosphorylation using fluorescence-labelled peptides as substrate at 9 uM after 90 mins by microfluidic peptide phosphorylation assay
T1 sequence (whole entry): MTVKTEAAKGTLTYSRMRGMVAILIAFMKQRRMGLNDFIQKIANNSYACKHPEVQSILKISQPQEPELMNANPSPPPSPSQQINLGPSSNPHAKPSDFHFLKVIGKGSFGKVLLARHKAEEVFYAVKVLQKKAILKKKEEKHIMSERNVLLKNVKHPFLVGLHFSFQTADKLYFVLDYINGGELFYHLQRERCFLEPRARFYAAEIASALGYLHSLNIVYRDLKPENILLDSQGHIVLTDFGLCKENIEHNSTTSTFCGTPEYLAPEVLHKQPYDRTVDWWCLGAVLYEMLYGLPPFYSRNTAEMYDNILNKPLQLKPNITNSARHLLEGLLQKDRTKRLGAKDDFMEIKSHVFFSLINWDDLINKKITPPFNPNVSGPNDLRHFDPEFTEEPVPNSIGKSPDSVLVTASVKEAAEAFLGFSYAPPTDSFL

[2] = biological target: Glycogen synthase kinase-3 beta (Homo sapiens) (UniProt P49841); assay: Inhibition of human full length GSK-3 beta expressed in baculovirus assessed as substrate phosphorylation using fluorescence-labelled peptides as substrate at […] after 90 mins by microfluidic peptide phosphorylation assay
[3] = biological target: Fibroblast growth factor receptor 1 (Homo sapiens) (UniProt P11362); assay: Inhibition of human FGFR1 catalytic domain expressed in baculovirus assessed as substrate phosphorylation using fluorescence-labelled peptides as substrate at 420 uM after 90 mins by microfluidic peptide phosphorylation assay
[4] = biological target: Glycogen synthase kinase-3 beta (Homo sapiens) (UniProt P49841); assay: Inhibition of human full length GSK-3 beta expressed in baculovirus assessed as substrate phosphorylation using fluorescence-labelled peptides as substrate at 8 uM after 90 mins by microfluidic peptide phosphorylation assay
[5] = biological target: T2, Serine/threonine-protein kinase Chk1 (Homo sapiens) (UniProt O14757); assay: Inhibition of human full length CHK1 expressed in baculovirus assessed as substrate phosphorylation using fluorescence-labelled peptides as substrate at 8 uM after 90 mins by microfluidic peptide phosphorylation assay
T2 sequence (whole entry): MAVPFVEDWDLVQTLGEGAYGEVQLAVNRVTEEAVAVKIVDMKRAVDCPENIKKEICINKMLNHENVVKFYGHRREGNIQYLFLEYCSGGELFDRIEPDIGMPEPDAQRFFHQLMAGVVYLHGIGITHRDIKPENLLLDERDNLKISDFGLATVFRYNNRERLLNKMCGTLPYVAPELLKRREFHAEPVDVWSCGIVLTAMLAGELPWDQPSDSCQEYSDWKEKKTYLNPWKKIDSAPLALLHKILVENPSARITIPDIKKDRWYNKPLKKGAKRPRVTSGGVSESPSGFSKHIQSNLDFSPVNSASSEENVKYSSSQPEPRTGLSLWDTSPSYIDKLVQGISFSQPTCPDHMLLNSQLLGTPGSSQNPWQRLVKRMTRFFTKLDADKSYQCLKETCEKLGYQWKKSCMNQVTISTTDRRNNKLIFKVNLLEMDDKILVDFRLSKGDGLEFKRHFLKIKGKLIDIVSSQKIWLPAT

[6] = biological target: T3, Protein kinase C epsilon type (Homo sapiens) (UniProt Q02156); assay: Inhibition of human truncated PKC epsilon expressed in baculovirus assessed as substrate phosphorylation using fluorescence-labelled peptides as substrate at 1000 uM after 90 mins by microfluidic peptide phosphorylation assay
T3 sequence (whole entry): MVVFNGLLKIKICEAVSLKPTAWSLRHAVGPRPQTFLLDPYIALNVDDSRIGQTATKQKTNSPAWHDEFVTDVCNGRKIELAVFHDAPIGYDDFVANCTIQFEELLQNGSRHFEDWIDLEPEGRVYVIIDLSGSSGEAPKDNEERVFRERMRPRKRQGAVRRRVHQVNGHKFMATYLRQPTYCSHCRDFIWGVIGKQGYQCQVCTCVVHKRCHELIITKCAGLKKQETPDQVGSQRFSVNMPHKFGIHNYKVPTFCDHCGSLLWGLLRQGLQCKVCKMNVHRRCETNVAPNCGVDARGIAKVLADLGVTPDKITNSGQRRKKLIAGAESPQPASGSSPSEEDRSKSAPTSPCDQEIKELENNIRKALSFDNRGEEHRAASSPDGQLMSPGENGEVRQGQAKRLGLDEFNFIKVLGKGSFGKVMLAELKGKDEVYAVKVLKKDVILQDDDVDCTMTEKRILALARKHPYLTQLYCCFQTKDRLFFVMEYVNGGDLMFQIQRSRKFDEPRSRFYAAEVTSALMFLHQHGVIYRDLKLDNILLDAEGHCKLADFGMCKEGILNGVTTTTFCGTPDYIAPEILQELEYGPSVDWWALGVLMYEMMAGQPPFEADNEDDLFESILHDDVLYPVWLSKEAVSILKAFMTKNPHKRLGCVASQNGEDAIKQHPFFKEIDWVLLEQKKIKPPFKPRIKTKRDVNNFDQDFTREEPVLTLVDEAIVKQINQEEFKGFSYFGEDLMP

Glycogen synthase kinase-3 beta (Homo sapiens), sequence (P49841 whole entry, looked up, the tested form may be a part): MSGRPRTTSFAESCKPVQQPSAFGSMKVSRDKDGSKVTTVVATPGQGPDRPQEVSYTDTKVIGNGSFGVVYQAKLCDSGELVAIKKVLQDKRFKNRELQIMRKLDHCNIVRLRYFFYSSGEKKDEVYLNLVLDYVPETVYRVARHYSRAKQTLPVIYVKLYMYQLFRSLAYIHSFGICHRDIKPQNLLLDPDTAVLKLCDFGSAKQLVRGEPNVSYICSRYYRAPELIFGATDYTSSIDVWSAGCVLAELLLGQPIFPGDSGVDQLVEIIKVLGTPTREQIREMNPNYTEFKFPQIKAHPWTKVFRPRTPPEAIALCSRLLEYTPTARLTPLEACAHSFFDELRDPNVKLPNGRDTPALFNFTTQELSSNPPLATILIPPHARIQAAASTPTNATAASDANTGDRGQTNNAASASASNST
Fibroblast growth factor receptor 1 (Homo sapiens), sequence (P11362 22-822 limits assumed): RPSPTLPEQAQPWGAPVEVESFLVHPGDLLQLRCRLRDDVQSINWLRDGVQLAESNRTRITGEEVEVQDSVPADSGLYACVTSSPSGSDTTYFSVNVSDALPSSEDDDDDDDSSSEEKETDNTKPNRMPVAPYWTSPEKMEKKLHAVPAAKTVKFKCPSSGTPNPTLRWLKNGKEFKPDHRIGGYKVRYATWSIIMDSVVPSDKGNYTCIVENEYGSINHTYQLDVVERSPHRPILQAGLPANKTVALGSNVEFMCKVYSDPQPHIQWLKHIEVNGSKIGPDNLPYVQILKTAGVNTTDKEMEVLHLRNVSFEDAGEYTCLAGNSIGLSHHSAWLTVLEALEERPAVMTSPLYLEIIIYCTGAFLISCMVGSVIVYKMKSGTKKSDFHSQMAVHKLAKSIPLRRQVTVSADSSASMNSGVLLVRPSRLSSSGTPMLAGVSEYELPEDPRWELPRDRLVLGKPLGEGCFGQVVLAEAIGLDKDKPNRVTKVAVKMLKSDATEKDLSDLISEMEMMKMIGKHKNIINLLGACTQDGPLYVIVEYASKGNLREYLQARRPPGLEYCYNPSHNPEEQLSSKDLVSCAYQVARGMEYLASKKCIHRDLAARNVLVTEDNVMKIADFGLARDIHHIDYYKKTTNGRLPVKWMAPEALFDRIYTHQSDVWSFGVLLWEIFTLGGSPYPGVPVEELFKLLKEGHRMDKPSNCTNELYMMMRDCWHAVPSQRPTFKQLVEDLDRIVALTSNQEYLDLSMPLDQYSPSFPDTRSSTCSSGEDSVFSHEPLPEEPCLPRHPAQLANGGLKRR

Q: With `NCC1CN(c2ncnc3[nH]c4cnccc4c23)CCO1` (stereo unspecified) as the compound, how does the inhibition [1] read?
A: 51%

Q: Which inhibition [2] does the source give for `COC(=O)c1cnc(Nc2cnc(C#N)cn2)cc1NCC1CCNCC1` here?
A: 3.5%

Q: Which inhibition [3] does the source give for `c1nc(N2CCOCC2)c2nc[nH]c2n1` here?
A: 97%

Q: What does the source list for `NCC1CCN(c2ncnc3[nH]ccc23)CC1`?
A: inhibition [4]: 0%; inhibition [5]: 0%

Q: `c1cnc2[nH]ccc2c1` was tested. Which inhibition [6] did it give?
A: 38%
